Molecules are shown by their SMILES.

One test has as its system MDCK-II. Description: Induction of claudin-1 mediated tight junction opening in MDCK-II cells assessed as increase in FITC-conjugated dextran incubated for 5 hrs relative to control. The format is cell-based. The arrangement: concentration or dose not given beside the values. The note with it: Canis lupus familiaris.
As to `CCCCCCC[C@@H](O)CC(=O)N[C@@H](CC(C)C)C(=O)N[C@H](CCC(=O)O)C(=O)N[C@H](CCC(N)=O)C(=O)N[C@H](C)C(=O)N[C@H](CC(C)C)C(=O)N[C@@H](CCC(N)=O)C(=O)N[C@@H]1COC(=O)[C@H]([C@@H](C)CC)NC(=O)[C@@H](CCC(N)=O)NC(=O)[C@H](CC(C)C)NC(=O)[C@H](CC(C)C)NC(=O)[C@@H](CCC(N)=O)NC(=O)[C@@H](CC(C)C)NC(=O)[C@@H](C(C)C)NC1=O`, the Activity worked out at 14.4%.

For `CCCCCCCCCC(=O)N[C@@H](CC(C)C)C(=O)N[C@H](CCC(=O)O)C(=O)N[C@H](CCC(N)=O)C(=O)N[C@H](C(=O)N[C@H](CC(C)C)C(=O)N[C@@H](CCC(N)=O)C(=O)N[C@@H]1COC(=O)[C@H]([C@@H](C)CC)NC(=O)[C@@H](CCC(N)=O)NC(=O)[C@H](CC(C)C)NC(=O)[C@H](CC(C)C)NC(=O)[C@@H](CCC(N)=O)NC(=O)[C@@H](CC(C)C)NC(=O)[C@@H](C(C)C)NC1=O)C(C)C`, the Activity was 8.6%.

Take `CCCCCCC[C@@H](O)CC(=O)N[C@@H](CC(C)C)C(=O)N[C@H](CCC(=O)O)C(=O)N[C@H](CCC(N)=O)C(=O)N[C@@H](C(=O)N[C@H](CC(C)C)C(=O)N[C@@H](CCC(N)=O)C(=O)N[C@@H]1COC(=O)[C@H]([C@@H](C)CC)NC(=O)[C@@H](CCC(N)=O)NC(=O)[C@H](CC(C)C)NC(=O)[C@H](C)NC(=O)[C@@H](CCC(N)=O)NC(=O)[C@@H](CC(C)C)NC(=O)[C@@H](C(C)C)NC1=O)C(C)C`: the Activity was found to be 12.7%.

Take `CCCCCCC[C@@H](O)CC(=O)N[C@@H](CC(C)C)C(=O)N[C@H](CCC(=O)O)C(=O)N[C@H](CCC(N)=O)C(=O)N[C@@H](C(=O)N[C@H](CC(C)C)C(=O)N[C@@H](CCC(N)=O)C(=O)N[C@@H]1COC(=O)[C@H]([C@@H](C)CC)NC(=O)[C@@H](CCC(N)=O)NC(=O)[C@H](CC(C)C)NC(=O)[C@H](CC(C)C)NC(=O)[C@@H](CCC(N)=O)NC(=O)[C@@H](CC(C)C)NC(=O)[C@@H](C)NC1=O)C(C)C`: the Activity came to 22.3%.

As to `CCCCCCC[C@@H](O)CC(=O)N[C@@H](C)C(=O)N[C@H](CCC(=O)O)C(=O)N[C@H](CCC(N)=O)C(=O)N[C@@H](C(=O)N[C@H](CC(C)C)C(=O)N[C@@H](CCC(N)=O)C(=O)N[C@@H]1COC(=O)[C@H]([C@@H](C)CC)NC(=O)[C@@H](CCC(N)=O)NC(=O)[C@H](CC(C)C)NC(=O)[C@H](CC(C)C)NC(=O)[C@@H](CCC(N)=O)NC(=O)[C@@H](CC(C)C)NC(=O)[C@@H](C(C)C)NC1=O)C(C)C`, the Activity stood at 31.8%.

As to `CCCCCCCCCC(=O)N[C@@H](CC(C)C)C(=O)N[C@H](CCC(=O)O)C(=O)N[C@H](CCC(N)=O)C(=O)N[C@@H](C(=O)N[C@H](CC(C)C)C(=O)N[C@@H](CCC(N)=O)C(=O)N[C@H]1COC(=O)[C@H]([C@@H](C)CC)NC(=O)[C@@H](CCC(N)=O)NC(=O)[C@H](CC(C)C)NC(=O)[C@H](CC(C)C)NC(=O)[C@@H](CCC(N)=O)NC(=O)[C@@H](CC(C)C)NC(=O)[C@@H](C(C)C)NC1=O)C(C)C`, the Activity worked out at 2.3%.

As to `CCCCCCC[C@@H](O)CC(=O)N[C@@H](CC(C)C)C(=O)N[C@H](CCC(=O)O)C(=O)N[C@H](C)C(=O)N[C@@H](C(=O)N[C@H](CC(C)C)C(=O)N[C@@H](CCC(N)=O)C(=O)N[C@@H]1COC(=O)[C@H]([C@@H](C)CC)NC(=O)[C@@H](CCC(N)=O)NC(=O)[C@H](CC(C)C)NC(=O)[C@H](CC(C)C)NC(=O)[C@@H](CCC(N)=O)NC(=O)[C@@H](CC(C)C)NC(=O)[C@@H](C(C)C)NC1=O)C(C)C`, the Activity was 32%.

As for `CCCCCCCCCC(=O)N[C@@H](CC(C)C)C(=O)N[C@H](CCC(=O)O)C(=O)N[C@H](CCC(N)=O)C(=O)N[C@@H](C(=O)N[C@H](CC(C)C)C(=O)N[C@H](CCC(N)=O)C(=O)N[C@@H]1COC(=O)[C@H]([C@@H](C)CC)NC(=O)[C@@H](CCC(N)=O)NC(=O)[C@H](CC(C)C)NC(=O)[C@H](CC(C)C)NC(=O)[C@@H](CCC(N)=O)NC(=O)[C@@H](CC(C)C)NC(=O)[C@@H](C(C)C)NC1=O)C(C)C`, the Activity is 0.8%.

For `CCCCCCCCCC(=O)N[C@@H](CC(C)C)C(=O)N[C@H](CCC(=O)O)C(=O)N[C@H](CCC(N)=O)C(=O)N[C@@H](C(=O)N[C@H](CC(C)C)C(=O)N[C@@H](CCC(N)=O)C(=O)N[C@@H]1COC(=O)[C@H]([C@@H](C)CC)NC(=O)[C@@H](CCC(N)=O)NC(=O)[C@@H](CC(C)C)NC(=O)[C@H](CC(C)C)NC(=O)[C@@H](CCC(N)=O)NC(=O)[C@@H](CC(C)C)NC(=O)[C@@H](C(C)C)NC1=O)C(C)C`, the Activity was -2.3%.

With `CCCCCCCCCC(=O)N[C@@H](CC(C)C)C(=O)N[C@H](CCC(=O)O)C(=O)N[C@@H](CCC(N)=O)C(=O)N[C@@H](C(=O)N[C@H](CC(C)C)C(=O)N[C@@H](CCC(N)=O)C(=O)N[C@@H]1COC(=O)[C@H]([C@@H](C)CC)NC(=O)[C@@H](CCC(N)=O)NC(=O)[C@H](CC(C)C)NC(=O)[C@H](CC(C)C)NC(=O)[C@@H](CCC(N)=O)NC(=O)[C@@H](CC(C)C)NC(=O)[C@@H](C(C)C)NC1=O)C(C)C`, the Activity was 17.6%.

Regarding `CCCCCCCCCCCCC(=O)N[C@@H](CC(C)C)C(=O)N[C@H](CCC(=O)O)C(=O)N[C@H](CCC(N)=O)C(=O)N[C@@H](C(=O)N[C@H](CC(C)C)C(=O)N[C@@H](CCC(N)=O)C(=O)N[C@@H]1COC(=O)[C@H]([C@@H](C)CC)NC(=O)[C@@H](CCC(N)=O)NC(=O)[C@H](CC(C)C)NC(=O)[C@H](CC(C)C)NC(=O)[C@@H](CCC(N)=O)NC(=O)[C@@H](CC(C)C)NC(=O)[C@@H](C(C)C)NC1=O)C(C)C`, the Activity amounted to 33.3%.

In the case of `CC[C@H](C)[C@@H]1NC(=O)[C@@H](CCC(N)=O)NC(=O)[C@H](CC(C)C)NC(=O)[C@H](CC(C)C)NC(=O)[C@@H](CCC(N)=O)NC(=O)[C@@H](CC(C)C)NC(=O)[C@@H](C(C)C)NC(=O)[C@H](NC(=O)[C@H](CCC(N)=O)NC(=O)[C@@H](CC(C)C)NC(=O)[C@H](NC(=O)[C@@H](CCC(N)=O)NC(=O)[C@@H](CCC(=O)O)NC(=O)[C@H](CC(C)C)NC(=O)CCO)C(C)C)COC1=O`, the Activity was -3%.

For the compound `CCCCCCC[C@@H](O)CC(=O)N[C@@H](CC(C)C)C(=O)N[C@H](CCC(=O)O)C(=O)N[C@H](CCC(N)=O)C(=O)N[C@@H](C(=O)N[C@H](CC(C)C)C(=O)N[C@@H](CCC(N)=O)C(=O)N[C@@H]1COC(=O)[C@H]([C@@H](C)CC)NC(=O)[C@@H](CCC(N)=O)NC(=O)[C@H](CC(C)C)NC(=O)[C@H](CC(C)C)NC(=O)[C@@H](CCC(N)=O)NC(=O)[C@@H](C)NC(=O)[C@@H](C(C)C)NC1=O)C(C)C`, the Activity came to 10.9%.

Regarding `CC[C@H](C)[C@@H]1NC(=O)[C@@H](CCC(N)=O)NC(=O)[C@H](CC(C)C)NC(=O)[C@H](CC(C)C)NC(=O)[C@@H](CCC(N)=O)NC(=O)[C@@H](CC(C)C)NC(=O)[C@@H](C(C)C)NC(=O)[C@H](NC(=O)[C@H](CCC(N)=O)NC(=O)[C@@H](CC(C)C)NC(=O)[C@H](NC(=O)[C@@H](CCC(N)=O)NC(=O)[C@@H](CCC(=O)O)NC(=O)[C@H](CC(C)C)NC(=O)CCC2CCCCC2)C(C)C)COC1=O`, the Activity came to 18.7%.

In the case of `CCCCCCC[C@@H](O)CC(=O)N[C@@H](CC(C)C)C(=O)N[C@H](CCC(=O)O)C(=O)N[C@H](CCC(N)=O)C(=O)N[C@@H](C(=O)N[C@H](C)C(=O)N[C@@H](CCC(N)=O)C(=O)N[C@@H]1COC(=O)[C@H]([C@@H](C)CC)NC(=O)[C@@H](CCC(N)=O)NC(=O)[C@H](CC(C)C)NC(=O)[C@H](CC(C)C)NC(=O)[C@@H](CCC(N)=O)NC(=O)[C@@H](CC(C)C)NC(=O)[C@@H](C(C)C)NC1=O)C(C)C`, the Activity stood at 9.2%.

Regarding `CC[C@H](C)[C@@H]1NC(=O)[C@@H](CCC(N)=O)NC(=O)[C@H](CC(C)C)NC(=O)[C@H](CC(C)C)NC(=O)[C@@H](CCC(N)=O)NC(=O)[C@@H](CC(C)C)NC(=O)[C@@H](C(C)C)NC(=O)[C@H](NC(=O)[C@H](CCC(N)=O)NC(=O)[C@@H](CC(C)C)NC(=O)[C@H](NC(=O)[C@@H](CCC(N)=O)NC(=O)[C@@H](CCC(=O)O)NC(=O)[C@H](CC(C)C)NC(=O)CCCC(C)C)C(C)C)COC1=O`, the Activity worked out at 2.6%.

With `CCCCCCC(=O)N[C@@H](CC(C)C)C(=O)N[C@H](CCC(=O)O)C(=O)N[C@H](CCC(N)=O)C(=O)N[C@@H](C(=O)N[C@H](CC(C)C)C(=O)N[C@@H](CCC(N)=O)C(=O)N[C@@H]1COC(=O)[C@H]([C@@H](C)CC)NC(=O)[C@@H](CCC(N)=O)NC(=O)[C@H](CC(C)C)NC(=O)[C@H](CC(C)C)NC(=O)[C@@H](CCC(N)=O)NC(=O)[C@@H](CC(C)C)NC(=O)[C@@H](C(C)C)NC1=O)C(C)C`, the Activity is -2.8%.

As for `CCCC(=O)N[C@@H](CC(C)C)C(=O)N[C@H](CCC(=O)O)C(=O)N[C@H](CCC(N)=O)C(=O)N[C@@H](C(=O)N[C@H](CC(C)C)C(=O)N[C@@H](CCC(N)=O)C(=O)N[C@@H]1COC(=O)[C@H]([C@@H](C)CC)NC(=O)[C@@H](CCC(N)=O)NC(=O)[C@H](CC(C)C)NC(=O)[C@H](CC(C)C)NC(=O)[C@@H](CCC(N)=O)NC(=O)[C@@H](CC(C)C)NC(=O)[C@@H](C(C)C)NC1=O)C(C)C`, the Activity is -1%.

Still in this test, the particulars now being: Canis lupus familiaris, filed as opener.
On to `CCCCCCCCCC(=O)N[C@@H](CC(C)C)C(=O)N[C@H](CCC(=O)O)C(=O)N[C@H](CCC(N)=O)C(=O)N[C@@H](C(=O)N[C@@H](CC(C)C)C(=O)N[C@@H](CCC(N)=O)C(=O)N[C@@H]1COC(=O)[C@H]([C@@H](C)CC)NC(=O)[C@@H](CCC(N)=O)NC(=O)[C@H](CC(C)C)NC(=O)[C@H](CC(C)C)NC(=O)[C@@H](CCC(N)=O)NC(=O)[C@@H](CC(C)C)NC(=O)[C@@H](C(C)C)NC1=O)C(C)C`, for which the Activity is 48.8%.

Consider `CCCCCCCCCC(=O)N[C@@H](CC(C)C)C(=O)N[C@H](CCC(=O)O)C(=O)N[C@H](CCC(N)=O)C(=O)N[C@@H](C(=O)N[C@H](CC(C)C)C(=O)N[C@@H](CCC(N)=O)C(=O)N[C@@H]1COC(=O)[C@H]([C@@H](C)CC)NC(=O)[C@@H](CCC(N)=O)NC(=O)[C@H](CC(C)C)NC(=O)[C@H](CC(C)C)NC(=O)[C@@H](CCC(N)=O)NC(=O)[C@@H](CC(C)C)NC(=O)[C@@H](C(C)C)NC1=O)C(C)C`, for which the Activity was found to be 174%.

On to `CCCCCCCCCC(=O)N[C@@H](CC(C)C)C(=O)N[C@@H](CCC(=O)O)C(=O)N[C@H](CCC(N)=O)C(=O)N[C@@H](C(=O)N[C@H](CC(C)C)C(=O)N[C@@H](CCC(N)=O)C(=O)N[C@@H]1COC(=O)[C@H]([C@@H](C)CC)NC(=O)[C@@H](CCC(N)=O)NC(=O)[C@H](CC(C)C)NC(=O)[C@H](CC(C)C)NC(=O)[C@@H](CCC(N)=O)NC(=O)[C@@H](CC(C)C)NC(=O)[C@@H](C(C)C)NC1=O)C(C)C`, for which the Activity came to 85.4%.

(Values after ChEMBL document CHEMBL5331117, “X-Ray Conformation and Structure-Activity Relationships of MA026, a Reversible Tight Junction Opener” (J Med Chem, 2023).)
